Tested on: Bovine cardiac myofibrils
Experiment: In vitro model of dose-dependent myofibril ATPase modulation (AC1.4, pyruvate kinase/lactate dehydrogenase-coupled ATPase assay at pCa25)
Type: biochemical
Details: concentration at which ATPase activity was 1.4-fold higher than the bottom of the dose curve, mean of a minimum of two independent tests
Summary of the method: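 Coupled-enzyme ATPase on bovine heart myofibrils, 1 mM ATP, EGTA/CaCl2 buffered; 340 nm readout.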

| Structure (SMILES) | AC1.4 [µM] |
| --- | --- |
| CS(=O)(=O)c1cccc(C(=O)N2CCC[C@@H]2C(=O)N[C@@H](c2ccc(Cl)c(F)c2)C2CC2)c1 [Example 426, N-((R)-(4-chloro-3-fluorophenyl)(cyclopropyl)methyl)-1-(3-(methylsulfonyl)benzoyl)-D-prolinamide] | 1.4595 |
| N#CC1CN(S(=O)(=O)N2CCC[C@H](C(=O)N3C[C@@H](F)C[C@@H]3C(=O)NCc3cccc(C(F)(F)F)c3)C2)C1 [Example 427, (4S)-1-(((3S)-1-((3-cyano-1-azetidinyl)sulfonyl)-3-piperidinyl)carbonyl)-4-fluoro-N-(3-(trifluoromethyl)benzyl)-D-prolinamide] | 1.5865 |
| C[C@@H](NC(=O)[C@H]1CCCN1C(=O)[C@@H]1CN(S(=O)(=O)N2CC(C#N)C2)CCN1)c1ccc(C(F)(F)F)cc1 [Example 428, 1-(((2S)-4-((3-cyano-1-azetidinyl)sulfonyl)-2-piperazinyl)carbonyl)-N-((1R)-1-(4-(trifluoromethyl)phenyl)ethyl)-D-prolinamide] | 1.606 |
| CS(=O)(=O)c1cncc(C(=O)N2C[C@@H](F)C[C@@H]2C(=O)N[C@@H](c2cc(F)c(C(F)(F)F)cc2F)C2CC2)c1 [Example 430, (4S)-N-((R)-cyclopropyl(2,5-difluoro-4-(trifluoromethyl)phenyl)methyl)-4-fluoro-1-((5-(methylsulfonyl)-3-pyridinyl)carbonyl)-D-prolinamide] | 1.474 |
| C[C@@H](NC(=O)[C@H]1CCCN1C(=O)c1cccc(S(=O)(=O)N2CC3(CC3)C2)c1)c1ccc(C(F)(F)F)cc1 [Example 434] | 1.66 |
| C[C@@H](NC(=O)[C@H]1CCCN1C(=O)c1cccc(S(=O)(=O)N(C)C)c1)c1ccc(C(F)(F)F)cc1 [Example 436, 1-(3-(dimethylsulfamoyl)benzoyl)-N-((1R)-1-(4-(trifluoromethyl)phenyl)ethyl)-D-prolinamide] | 1.7 |
| N#CC1CN(S(=O)(=O)N2CCC[C@H](C(=O)N3CCC[C@@H]3C(=O)NC3CCc4ccccc43)C2)C1 (stereo partly drawn) [Example 442, (2R)-1-((S)-1-((3-cyanoazetidin-1-yl)sulfonyl)piperidine-3-carbonyl)-N-(2,3-dihydro-1H-inden-1-yl)pyrrolidine-2-carboxamide] | 1.7305 |
| CS(=O)(=O)c1ccnc(C(=O)N2[C@@H](C(=O)N[C@@H](c3ccc(C(F)(F)F)cc3F)C3CC3)C[C@H]3C[C@H]32)c1 [Example 444, (1R,3R,5R)-N-((R)-cyclopropyl(2-fluoro-4-(trifluoromethyl)phenyl)methyl)-2-(4-(methylsulfonyl)picolinoyl)-2-azabicyclo[3.1.0]hexane-3-carboxamide] | 1.547 |
| NS(=O)(=O)c1cccc(C(=O)N2CC(F)(F)C[C@@H]2C(=O)N[C@@H](c2ccc(C(F)(F)F)cc2F)C2CC2)c1 [Example 446, N-((R)-cyclopropyl(2-fluoro-4-(trifluoromethyl)phenyl)methyl)-4,4-difluoro-1-(3-sulfamoylbenzoyl)-D-prolinamide] | 1.826 |
| O=C(NCc1ccc(C(F)(F)F)cc1F)[C@H]1CCCN1C(=O)c1cccc(S(=O)(=O)N2CC(O)C2)c1 [Example 449, N-(2-fluoro-4-(trifluoromethyl)benzyl)-1-(3-((3-hydroxy-1-azetidinyl)sulfonyl)benzoyl)-D-prolinamide] | 1.845 |
| O=C(N[C@@H](c1ccc(C(F)(F)F)cc1F)C1CC1)[C@H]1CCCN1C(=O)c1cccc(C2(F)CN(S(=O)(=O)C3COC3)C2)c1 [Example 451, N-((R)-cyclopropyl(2-fluoro-4-(trifluoromethyl)phenyl)methyl)-1-(3-(3-fluoro-1-(3-oxetanylsulfonyl)-3-azetidinyl)benzoyl)-D-prolinamide] | 1.8635 |
| CC[C@@H](NC(=O)[C@H]1CCCN1C(=O)c1cccc(S(C)(=O)=O)c1)c1cc(F)c(Cl)cc1F [Example 453, N-((1R)-1-(4-chloro-2,5-difluorophenyl)propyl)-1-(3-(methylsulfonyl)benzoyl)-D-prolinamide] | 1.5515 |
| O=C(NCc1ccc(C(F)(F)F)cc1)[C@H]1CCCN1C(=O)c1cccc(S(=O)(=O)Cc2ccccc2)c1 [Example 454, 1-(3-(benzylsulfonyl)benzoyl)-N-(4-(trifluoromethyl)benzyl)-D-prolinamide] | 1.8665 |
| C[C@H](C(=O)NCc1cccc(C(F)(F)F)c1)N(C)C(=O)c1cccc(S(=O)(=O)N2CC(C#N)C2)c1 [Example 455, 3-((3-cyano-1-azetidinyl)sulfonyl)-N-methyl-N-((1R)-1-methyl-2-oxo-2-((3-(trifluoromethyl)benzyl)amino)ethyl)benzamide] | 1.877 |
| N#CC1(c2cccc(C(=O)N3[C@@H](C(=O)N[C@@H](c4ccc(C(F)(F)F)cc4F)C4COC4)C[C@H]4C[C@H]43)c2)CC1 [Example 456, (1R,3R,5R)-2-(3-(1-cyanocyclopropyl)benzoyl)-N-((R)-(2-fluoro-4-(trifluoromethyl)phenyl)(3-oxetanyl)methyl)-2-azabicyclo[3.1.0]hexane-3-carboxamide] | 1.882 |

Further lines, results first:

| AC1.4 [µM] | Structure (SMILES) |
| --- | --- |
| 1.6075 | CS(=O)(=O)C1CN(S(=O)(=O)N2CCC[C@H](C(=O)N3CCC[C@@H]3C(=O)NCc3cc(F)cc(F)c3)C2)C1 [Example 429, N-(3,5-difluorobenzyl)-1-(((3S)-1-((3-(methylsulfonyl)-1-azetidinyl)sulfonyl)-3-piperidinyl)carbonyl)-D-prolinamide] |
| 1.6305 | C[C@H](NC(=O)[C@H]1CCCN1C(=O)[C@H]1CCCN(S(=O)(=O)N2CC(C#N)C2)C1)c1ccc(C(F)(F)F)cc1 [Example 431, 1-(((3S)-1-((3-cyano-1-azetidinyl)sulfonyl)-3-piperidinyl)carbonyl)-N-((1S)-1-(4-(trifluoromethyl)phenyl)ethyl)-D-prolinamide] |
| 1.681 | N#CC1CN(S(=O)(=O)N2CCC[C@H](C(=O)N3CCC[C@@H]3C(=O)NCc3ccc(OC(F)F)cc3)C2)C1 [Example 435, 1-(((3S)-1-((3-cyano-1-azetidinyl)sulfonyl)-3-piperidinyl)carbonyl)-N-(4-(difluoromethoxy)benzyl)-D-prolinamide] |
| 1.7085 | N#CC1CN(S(=O)(=O)N2CCC[C@H](C(=O)N3CCC[C@@H]3C(=O)NCc3ccc(F)cc3)C2)C1 [Example 437, 1-(((3S)-1-((3-cyano-1-azetidinyl)sulfonyl)-3-piperidinyl)carbonyl)-N-(4-fluorobenzyl)-D-prolinamide] |
| 1.712 | N#CC1CN(S(=O)(=O)N2CCC[C@H](C(=O)N3CCC[C@@H]3C(=O)NCc3cccc(Cl)c3)C2)C1 [Example 438, N-(3-chlorobenzyl)-1-(((3S)-1-((3-cyano-1-azetidinyl)sulfonyl)-3-piperidinyl)carbonyl)-D-prolinamide] |
| 1.7125 | Cc1cc(CNC(=O)[C@H]2CCCN2C(=O)[C@H]2CCCN(S(=O)(=O)N3CC(C#N)C3)C2)ccc1F [Example 439, 1-(((3S)-1-((3-cyano-1-azetidinyl)sulfonyl)-3-piperidinyl)carbonyl)-N-(4-fluoro-3-methylbenzyl)-D-prolinamide] |
| 1.7235 | N#CC1CN(S(=O)(=O)N2CCC[C@H](C(=O)N3CCC[C@@H]3C(=O)NCc3cc(F)ccc3Cl)C2)C1 [Example 440, N-(2-chloro-5-fluorobenzyl)-1-(((3S)-1-((3-cyano-1-azetidinyl)sulfonyl)-3-piperidinyl)carbonyl)-D-prolinamide] |
| 1.7265 | N#CC1CN(S(=O)(=O)N2CCC[C@H](C(=O)N3CCC[C@@H]3C(=O)N[C@@H](CO)c3ccc(Cl)c(F)c3)C2)C1 [Example 441, N-((1R)-1-(4-chloro-3-fluorophenyl)-2-hydroxyethyl)-1-(((3S)-1-((3-cyano-1-azetidinyl)sulfonyl)-3-piperidinyl)carbonyl)-D-prolinamide] |
| 1.7885 | Cc1cc(Cl)cc(CNC(=O)[C@H]2CCCN2C(=O)[C@H]2CCCN(S(=O)(=O)N3CC(C#N)C3)C2)c1 [Example 443, N-(3-chloro-5-methylbenzyl)-1-(((3S)-1-((3-cyano-1-azetidinyl)sulfonyl)-3-piperidinyl)carbonyl)-D-prolinamide] |
| 1.823 | Cc1cc(CNC(=O)[C@H]2CCCN2C(=O)[C@H]2CCCN(S(=O)(=O)N3CC(C#N)C3)C2)cc(C)c1F [Example 445, 1-(((3S)-1-((3-cyano-1-azetidinyl)sulfonyl)-3-piperidinyl)carbonyl)-N-(4-fluoro-3,5-dimethylbenzyl)-D-prolinamide] |
| 1.831 | N#CC1CN(S(=O)(=O)N2CCC[C@H](C(=O)N3CCC[C@@H]3C(=O)NCc3ccc(C4CC4)cc3)C2)C1 [Example 447, 1-(((3S)-1-((3-cyano-1-azetidinyl)sulfonyl)-3-piperidinyl)carbonyl)-N-(4-cyclopropylbenzyl)-D-prolinamide] |
| 1.844 | N#CC1CN(S(=O)(=O)N2CCC[C@H](C(=O)N3CCOC[C@@H]3C(=O)NCc3ccc(C(F)F)cc3)C2)C1 [Example 448, (3R)-4-(((3S)-1-((3-cyano-1-azetidinyl)sulfonyl)-3-piperidinyl)carbonyl)-N-(4-(difluoromethyl)benzyl)-3-morpholinecarboxamide] |
| 1.8545 | O=C(NCc1ccc(C(F)(F)F)cc1)[C@H]1CCCN1C(=O)[C@H]1CCCN(S(=O)(=O)N2CC(F)(C3CC3)C2)C1 [Example 450, 1-(((3S)-1-((3-cyclopropyl-3-fluoro-1-azetidinyl)sulfonyl)-3-piperidinyl)carbonyl)-N-(4-(trifluoromethyl)benzyl)-D-prolinamide] |
| 1.8655 | Cc1ccc(C(C)NC(=O)[C@H]2CCCN2C(=O)[C@H]2CCCN(S(=O)(=O)N3CC(C#N)C3)C2)cc1 (stereo partly drawn) [Example 452, (2R)-1-((S)-1-((3-cyanoazetidin-1-yl)sulfonyl)piperidine-3-carbonyl)-N-(1-(p-tolyl)ethyl)pyrrolidine-2-carboxamide] |

— patent US11780826B2 (Amgen Inc., priority 2017, dated 2023)
